In patent US9340590B2 (priority 2011, dated 2016):
Like-named read-outs stand apart in the source and are kept apart here. Positions of bridges follow the written chain, without caps; N, C: chain ends. Non-standard residues stand in square brackets, D forms with d. Residues, ends and D or L forms follow the SMILES beside them. *: point of attachment. Bpa = N[C@@H](Cc1ccc(C(=O)c2ccccc2)cc1)C(=O)O; Pent4ynoyl = C#CCCC(=O)*; Nva = CCC[C@H](N)C(=O)O; Abu = CC[C@H](N)C(=O)O

What was measured:
Assay in all cases: cell-based
hNav1.5 = hNav1.5 (Homo sapiens, UniProt Q14524)
hNav1.7 = hNav1.7 (Homo sapiens, UniProt Q15858); format: cell-based; settings: IonWorks Quattro, read-out: IWQ Use Nav1.7
hNav1.3 = hNav1.3 (Homo sapiens, UniProt Q9NY46); settings: IonWorks Quattro, read-out: IWQ Use Nav1.3
[1] = clamped to −110 mV, depolarized to −10 mV, 5 min after compound, n=2
[2] = IonWorks Quattro, use-dependent block, hNav1.5, read-out: IWQ Use Nav1.5

hNav1.7, sequence (Q15858 whole entry, looked up): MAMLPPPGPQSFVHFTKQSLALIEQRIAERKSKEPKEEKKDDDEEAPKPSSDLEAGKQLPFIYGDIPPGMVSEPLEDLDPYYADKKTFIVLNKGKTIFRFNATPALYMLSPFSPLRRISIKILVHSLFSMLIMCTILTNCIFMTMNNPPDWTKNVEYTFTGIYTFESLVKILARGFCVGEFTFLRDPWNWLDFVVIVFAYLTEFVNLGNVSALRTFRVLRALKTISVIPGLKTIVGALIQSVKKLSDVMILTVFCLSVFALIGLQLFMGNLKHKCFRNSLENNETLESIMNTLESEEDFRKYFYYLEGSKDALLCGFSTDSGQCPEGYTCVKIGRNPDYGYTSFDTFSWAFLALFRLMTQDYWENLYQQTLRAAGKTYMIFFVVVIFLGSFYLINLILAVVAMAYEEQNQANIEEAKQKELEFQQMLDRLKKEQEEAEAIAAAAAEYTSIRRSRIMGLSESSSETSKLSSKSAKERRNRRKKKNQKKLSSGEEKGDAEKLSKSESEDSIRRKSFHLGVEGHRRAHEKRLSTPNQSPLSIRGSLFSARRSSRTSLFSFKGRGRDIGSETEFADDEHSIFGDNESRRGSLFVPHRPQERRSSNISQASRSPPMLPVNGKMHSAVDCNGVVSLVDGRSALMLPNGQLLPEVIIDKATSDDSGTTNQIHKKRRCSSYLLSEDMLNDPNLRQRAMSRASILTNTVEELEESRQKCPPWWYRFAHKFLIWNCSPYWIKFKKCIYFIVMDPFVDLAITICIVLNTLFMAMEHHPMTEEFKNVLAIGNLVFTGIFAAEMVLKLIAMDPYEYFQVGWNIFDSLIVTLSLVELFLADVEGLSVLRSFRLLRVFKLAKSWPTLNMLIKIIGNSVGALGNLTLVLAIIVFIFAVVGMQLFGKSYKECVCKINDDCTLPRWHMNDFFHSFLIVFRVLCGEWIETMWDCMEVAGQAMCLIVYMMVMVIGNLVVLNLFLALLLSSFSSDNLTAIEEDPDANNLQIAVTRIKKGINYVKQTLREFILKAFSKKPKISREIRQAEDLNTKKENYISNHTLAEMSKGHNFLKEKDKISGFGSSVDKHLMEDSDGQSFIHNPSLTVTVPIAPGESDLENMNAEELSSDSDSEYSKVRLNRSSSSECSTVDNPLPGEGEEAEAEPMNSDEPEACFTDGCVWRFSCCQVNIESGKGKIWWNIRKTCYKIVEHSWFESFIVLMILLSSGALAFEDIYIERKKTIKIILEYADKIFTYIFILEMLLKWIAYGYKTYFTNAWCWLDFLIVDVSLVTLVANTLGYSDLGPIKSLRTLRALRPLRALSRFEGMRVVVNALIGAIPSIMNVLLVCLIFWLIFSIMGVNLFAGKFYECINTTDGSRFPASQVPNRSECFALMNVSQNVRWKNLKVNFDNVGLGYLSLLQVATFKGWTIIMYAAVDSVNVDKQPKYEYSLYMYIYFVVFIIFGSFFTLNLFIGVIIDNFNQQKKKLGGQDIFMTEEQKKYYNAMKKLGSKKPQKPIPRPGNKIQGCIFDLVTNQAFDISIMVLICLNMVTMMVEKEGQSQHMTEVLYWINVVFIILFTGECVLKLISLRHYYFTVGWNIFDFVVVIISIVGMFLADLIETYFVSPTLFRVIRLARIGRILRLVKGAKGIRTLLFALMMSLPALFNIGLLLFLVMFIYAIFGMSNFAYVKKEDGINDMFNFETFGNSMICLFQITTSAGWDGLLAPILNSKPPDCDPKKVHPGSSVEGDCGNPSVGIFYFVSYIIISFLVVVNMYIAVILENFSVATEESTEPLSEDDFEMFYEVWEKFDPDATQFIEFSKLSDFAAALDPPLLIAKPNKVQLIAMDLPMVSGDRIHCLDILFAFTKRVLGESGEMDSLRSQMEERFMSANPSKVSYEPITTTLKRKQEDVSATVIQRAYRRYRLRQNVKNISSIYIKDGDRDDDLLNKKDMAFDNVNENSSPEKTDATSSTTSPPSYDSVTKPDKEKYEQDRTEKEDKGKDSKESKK
hNav1.3, sequence (Q9NY46 whole entry, looked up): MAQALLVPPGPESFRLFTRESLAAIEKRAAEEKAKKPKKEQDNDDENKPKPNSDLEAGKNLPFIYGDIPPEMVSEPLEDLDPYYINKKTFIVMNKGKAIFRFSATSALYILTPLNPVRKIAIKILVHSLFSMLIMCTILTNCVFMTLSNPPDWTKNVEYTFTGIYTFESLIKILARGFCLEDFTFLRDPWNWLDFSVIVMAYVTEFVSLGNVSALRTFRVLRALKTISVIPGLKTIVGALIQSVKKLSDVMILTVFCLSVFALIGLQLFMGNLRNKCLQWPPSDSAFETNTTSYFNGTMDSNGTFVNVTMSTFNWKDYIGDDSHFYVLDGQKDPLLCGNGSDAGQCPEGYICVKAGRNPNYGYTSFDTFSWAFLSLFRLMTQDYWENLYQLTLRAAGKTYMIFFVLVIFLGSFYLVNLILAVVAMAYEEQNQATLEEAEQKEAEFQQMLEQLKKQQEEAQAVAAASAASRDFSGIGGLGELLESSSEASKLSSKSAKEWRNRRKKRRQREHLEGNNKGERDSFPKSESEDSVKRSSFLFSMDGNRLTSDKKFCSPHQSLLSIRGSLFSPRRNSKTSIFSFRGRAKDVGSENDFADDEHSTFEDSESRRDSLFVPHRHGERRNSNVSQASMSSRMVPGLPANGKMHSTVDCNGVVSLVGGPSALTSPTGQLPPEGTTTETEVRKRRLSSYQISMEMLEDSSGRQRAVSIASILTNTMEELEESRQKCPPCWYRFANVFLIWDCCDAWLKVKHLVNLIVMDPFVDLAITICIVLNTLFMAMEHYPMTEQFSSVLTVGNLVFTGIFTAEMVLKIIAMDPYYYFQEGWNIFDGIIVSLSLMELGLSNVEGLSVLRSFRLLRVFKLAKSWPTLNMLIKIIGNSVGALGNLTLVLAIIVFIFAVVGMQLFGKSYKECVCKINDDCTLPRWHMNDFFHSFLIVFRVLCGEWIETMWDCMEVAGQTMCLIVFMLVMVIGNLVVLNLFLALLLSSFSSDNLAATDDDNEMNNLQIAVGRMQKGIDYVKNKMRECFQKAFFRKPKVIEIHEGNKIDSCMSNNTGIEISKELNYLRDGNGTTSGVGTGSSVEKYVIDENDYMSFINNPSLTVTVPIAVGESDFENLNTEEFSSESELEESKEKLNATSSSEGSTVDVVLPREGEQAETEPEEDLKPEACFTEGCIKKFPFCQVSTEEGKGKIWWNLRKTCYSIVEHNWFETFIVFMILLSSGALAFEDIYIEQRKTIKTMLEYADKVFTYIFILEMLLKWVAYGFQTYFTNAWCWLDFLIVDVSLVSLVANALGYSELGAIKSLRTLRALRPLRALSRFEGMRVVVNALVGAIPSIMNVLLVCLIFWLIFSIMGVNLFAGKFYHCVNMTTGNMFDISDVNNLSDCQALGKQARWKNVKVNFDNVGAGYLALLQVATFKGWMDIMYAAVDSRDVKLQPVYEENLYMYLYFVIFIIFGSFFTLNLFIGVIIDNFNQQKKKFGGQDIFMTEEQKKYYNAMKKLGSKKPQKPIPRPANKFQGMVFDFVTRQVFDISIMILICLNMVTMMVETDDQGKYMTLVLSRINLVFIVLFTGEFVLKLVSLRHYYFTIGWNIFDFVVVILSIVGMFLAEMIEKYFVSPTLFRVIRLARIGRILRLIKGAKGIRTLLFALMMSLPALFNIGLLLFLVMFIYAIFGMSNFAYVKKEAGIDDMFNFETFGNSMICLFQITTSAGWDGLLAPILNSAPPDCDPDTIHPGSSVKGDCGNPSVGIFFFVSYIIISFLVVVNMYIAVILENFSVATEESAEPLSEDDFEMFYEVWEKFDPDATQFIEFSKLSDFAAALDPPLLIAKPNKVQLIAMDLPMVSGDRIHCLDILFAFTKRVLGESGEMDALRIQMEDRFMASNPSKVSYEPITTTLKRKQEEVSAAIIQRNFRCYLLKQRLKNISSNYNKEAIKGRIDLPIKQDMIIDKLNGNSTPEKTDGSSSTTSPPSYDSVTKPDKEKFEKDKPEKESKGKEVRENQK

## CC[C@H](C)[C@@H]1NC(=O)[C@@H]2CSSC[C@@H]3NC(=O)[C@H](C(C)C)NC(=O)[C@H](CC(C)C)NC(=O)[C@H](CC(N)=O)NC(=O)[C@@H]4CCCN4C(=O)[C@H](CCCNC(=N)N)NC(=O)[C@H](CSSC[C@H](NC(=O)[C@@H](N)CC(=O)O)C(=O)N[C@@H](CC(C)C)C(=O)NCC(=O)N[C@@H](Cc4ccccc4)C(=O)N[C@@H](CCSC)C(=O)N[C@@H](CCCNC(=N)N)C(=O)N[C@@H](CCCCN)C(=O)N2)NC(=O)[C@H](CSSC[C@@H](C(=O)N[C@@H](CCCCN)C(=O)N[C@@H](Cc2ccc(O)cc2)C(=O)N[C@H](C(=O)N[C@@H](Cc2ccccc2)C(N)=O)C(C)C)NC(=O)[C@H](Cc2c[nH]c4ccccc24)NC(=O)[C@H](CCCCN)NC(=O)[C@H](Cc2c[nH]cn2)NC(=O)[C@H]([C@@H](C)O)NC(=O)[C@H](CCCNC(=N)N)NC(=O)[C@H](CO)NC3=O)NC(=O)[C@H](CCCCN)NC(=O)[C@H](CC(=O)O)NC(=O)[C@H](CC(N)=O)NC(=O)CNC(=O)[C@@H]2CCCN2C1=O [compound 194] (H-DCLGFMRKCIPGNDKCCRPNLVCSRTHKWCKYVF-NH2; disulfide 2-17, 9-23, 16-30)
hNav1.5; IonWorks Quattro, Use, read-out: IWQ Use Nav1.5
  IC50: 8.76 µM
hNav1.7; Use
  IC50: 0.075 µM
hNav1.3; Use
  IC50: 0.047 µM

## CC[C@H](C)[C@@H]1NC(=O)[C@@H]2CSSC[C@@H]3NC(=O)[C@H](C(C)C)NC(=O)[C@H](CC(C)C)NC(=O)[C@H](CC(N)=O)NC(=O)[C@@H]4CCCN4C(=O)[C@H](CCCNC(=N)N)NC(=O)[C@H](CSSC[C@H](NC(=O)[C@@H](N)CC(=O)O)C(=O)N[C@@H](CC(C)C)C(=O)NCC(=O)N[C@@H](Cc4c[nH]c5ccccc45)C(=O)N[C@@H](CCSC)C(=O)N[C@@H](CCCNC(=N)N)C(=O)N[C@@H](CCCCN)C(=O)N2)NC(=O)[C@H](CSSC[C@@H](C(=O)N[C@@H](CCCCN)C(=O)N[C@@H](Cc2ccc(O)cc2)C(=O)N[C@H](C(=O)N[C@@H](Cc2ccccc2)C(N)=O)C(C)C)NC(=O)[C@H](Cc2c[nH]c4ccccc24)NC(=O)[C@H](CCCCN)NC(=O)[C@H](Cc2cnc[nH]2)NC(=O)[C@H]([C@@H](C)O)NC(=O)[C@H](CCCNC(=N)N)NC(=O)[C@H](CO)NC3=O)NC(=O)[C@H](CCCCN)NC(=O)[C@H](CC(=O)O)NC(=O)[C@H](CC(N)=O)NC(=O)[C@H](CC(=O)O)NC(=O)[C@@H]2CCCN2C1=O [SEQ ID NO: 82] (H-DCLGWMRKCIPDNDKCCRPNLVCSRTHKWCKYVF-NH2; disulfide 2-17, 9-23, 16-30)
hNav1.5; IonWorks Quattro, clamped to −110 mV, depolarized to −10 mV, 5 min after compound, n=2, read-out: IWQ Use Nav1.5
  IC50: 9.32 µM
hNav1.7; [1]
  IC50: 0.15 µM
hNav1.3; [1]
  IC50: 0.11 µM

## CC[C@H](C)[C@@H]1NC(=O)[C@@H]2CSSC[C@@H]3NC(=O)[C@H](C(C)C)NC(=O)[C@H](CC(C)C)NC(=O)[C@H](CC(N)=O)NC(=O)[C@@H]4CCCN4C(=O)[C@H](CCCNC(=N)N)NC(=O)[C@H](CSSC[C@H](NC(=O)[C@@H](N)CC(=O)O)C(=O)N[C@@H](CC(C)C)C(=O)NCC(=O)N[C@@H](Cc4ccc(C(=O)c5ccccc5)cc4)C(=O)N[C@@H](Cc4ccccc4)C(=O)N[C@@H](CCCNC(=N)N)C(=O)N[C@@H](CCCCN)C(=O)N2)NC(=O)[C@H](CSSC[C@@H](C(=O)N[C@@H](CCCCN)C(=O)N[C@@H](Cc2ccc(O)cc2)C(=O)N[C@H](C(=O)N[C@@H](Cc2ccccc2)C(N)=O)C(C)C)NC(=O)[C@H](Cc2c[nH]c4ccccc24)NC(=O)[C@H](CCCCN)NC(=O)[C@H](Cc2c[nH]cn2)NC(=O)[C@H]([C@@H](C)O)NC(=O)[C@H](CCCNC(=N)N)NC(=O)[C@H](CO)NC3=O)NC(=O)[C@H](CCCCN)NC(=O)[C@H](CC(=O)O)NC(=O)[C@H](CC(N)=O)NC(=O)[C@H](CC(=O)O)NC(=O)[C@@H]2CCCN2C1=O [compound 619] (H-DCLG[Bpa]FRKCIPDNDKCCRPNLVCSRTHKWCKYVF-NH2; disulfide 2-17, 9-23, 16-30)
hNav1.5; IonWorks Quattro, use-dependent protocol, hNav1.5, read-out: IWQ Use Nav1.5
  IC50: 7.7 µM
hNav1.7; use-dependent protocol, hNav1.7
  IC50: 0.14 µM
hNav1.3; use-dependent protocol, hNav1.3
  IC50: 0.042 µM

## CC[C@H](C)[C@@H]1NC(=O)[C@@H]2CSSC[C@@H]3NC(=O)[C@H](C(C)C)NC(=O)[C@H](CC(C)C)NC(=O)[C@H](CC(N)=O)NC(=O)[C@@H]4CCCN4C(=O)[C@H](CCCNC(=N)N)NC(=O)[C@H](CSSC[C@H](NC(=O)[C@@H](N)CC(=O)O)C(=O)N[C@@H](CC(C)C)C(=O)NCC(=O)NCC(=O)N[C@@H](Cc4ccccc4)C(=O)N[C@@H](CCCNC(=N)N)C(=O)N[C@@H](CCCCN)C(=O)N2)NC(=O)[C@H](CSSC[C@@H](C(=O)N[C@@H](CCCCN)C(=O)N[C@@H](Cc2ccc(O)cc2)C(=O)N[C@H](C(=O)N[C@@H](Cc2ccccc2)C(N)=O)C(C)C)NC(=O)[C@H](Cc2c[nH]c4ccccc24)NC(=O)[C@H](CCC(=O)O)NC(=O)[C@H](Cc2c[nH]cn2)NC(=O)[C@H]([C@@H](C)O)NC(=O)[C@H](CCCNC(=N)N)NC(=O)[C@H](CO)NC3=O)NC(=O)[C@H](CCCCN)NC(=O)[C@H](CC(=O)O)NC(=O)[C@H](CC(N)=O)NC(=O)[C@H](CC(=O)O)NC(=O)[C@@H]2CCCN2C1=O [compound 755] (H-DCLGGFRKCIPDNDKCCRPNLVCSRTHEWCKYVF-NH2; disulfide 2-17, 9-23, 16-30)
hNav1.5; [2]
  IC50: 15.3 µM
hNav1.7; use-dependent block, hNav1.7
  IC50: > 5 µM
hNav1.3; use-dependent block, hNav1.3
  IC50: > 5 µM

## CC[C@H](C)[C@@H]1NC(=O)[C@@H]2CSSC[C@@H]3NC(=O)[C@H](C(C)C)NC(=O)[C@H](CC(C)C)NC(=O)[C@H](CC(N)=O)NC(=O)[C@@H]4CCCN4C(=O)[C@H](CCCNC(=N)N)NC(=O)[C@H](CSSC[C@H](NC(=O)[C@@H](N)CC(=O)O)C(=O)N[C@@H](CC(C)C)C(=O)NCC(=O)N[C@@H](Cc4ccccc4)C(=O)N[C@@H](CCSC)C(=O)N[C@@H](CCCNC(=N)N)C(=O)N[C@@H](CCCCN)C(=O)N2)NC(=O)[C@H](CSSC[C@@H](C(=O)N[C@@H](CCCCN)C(=O)N[C@@H](Cc2ccc(O)cc2)C(=O)N[C@H](C(=O)N(C)[C@@H](Cc2ccccc2)C(N)=O)C(C)C)NC(=O)[C@H](Cc2c[nH]c4ccccc24)NC(=O)[C@H](CCCCN)NC(=O)[C@H](Cc2c[nH]cn2)NC(=O)[C@H]([C@@H](C)O)NC(=O)[C@H](CCCNC(=N)N)NC(=O)[C@H](CO)NC3=O)NC(=O)[C@H](CCCCN)NC(=O)[C@H](CC(=O)O)NC(=O)[C@H](CC(N)=O)NC(=O)[C@H](CC(=O)O)NC(=O)[C@@H]2CCCN2C1=O [compound 408]
hNav1.5; IonWorks Quattro, use-dependent, […], read-out: IWQ Use Nav1.5
  IC50: 18.8 µM
hNav1.7; use-dependent, […]
  IC50: 10 µM
hNav1.3; use-dependent, […]
  IC50: 4.56 µM

## C#CCCC(=O)N[C@@H](CC(=O)O)C(=O)N[C@H]1CSSC[C@@H]2NC(=O)[C@@H]3CSSC[C@@H](C(=O)N[C@@H](CCCCN)C(=O)N[C@@H](Cc4ccc(O)cc4)C(=O)N[C@H](C(=O)N[C@@H](Cc4ccccc4)C(N)=O)C(C)C)NC(=O)[C@H](Cc4c[nH]c5ccccc45)NC(=O)[C@H](CCCNC(=N)N)NC(=O)[C@H](Cc4c[nH]cn4)NC(=O)[C@H]([C@@H](C)O)NC(=O)[C@H](CCCNC(=N)N)NC(=O)[C@H](CO)NC(=O)[C@H](CSSC[C@H](NC(=O)[C@H](CCCCN)NC(=O)[C@H](CCCNC(=N)N)NC(=O)[C@H](CC(C)C)NC(=O)[C@H](CCC)NC(=O)CNC(=O)[C@H](CC(C)C)NC1=O)C(=O)N[C@@H]([C@@H](C)CC)C(=O)N1CCC[C@H]1C(=O)N[C@@H](CC(=O)O)C(=O)N[C@@H](CC)C(=O)N[C@@H](CC(=O)O)C(=O)N[C@@H](CCCCN)C(=O)N3)NC(=O)[C@H](C(C)C)NC(=O)[C@H](CC(C)C)NC(=O)[C@H](CC(N)=O)NC(=O)[C@@H]1CCCN1C(=O)[C@H](CCCNC(=N)N)NC2=O [compound 759] (Pent4ynoyl-DCLG[Nva]LRKCIPD[Abu]DKCCRPNLVCSRTHRWCKYVF-NH2; disulfide 2-17, 9-23, 16-30)
hNav1.5; [2]
  IC50: 46.2 µM
hNav1.7; use-dependent block, hNav1.7
  IC50: 0.1 µM
hNav1.3; use-dependent block, hNav1.3
  IC50: 0.23 µM

## CC[C@H](C)[C@@H]1NC(=O)[C@@H]2CSSC[C@@H]3NC(=O)[C@H](C(C)C)NC(=O)[C@H](CC(C)C)NC(=O)[C@H](CC(N)=O)NC(=O)[C@@H]4CCCN4C(=O)[C@H](CCCNC(=N)N)NC(=O)[C@H](CSSC[C@H](NC(=O)[C@@H](N)CC(=O)O)C(=O)N[C@@H](CC(C)C)C(=O)NCC(=O)N[C@@H](Cc4ccccc4)C(=O)N[C@@H](CCSC)C(=O)N[C@@H](CCCNC(=N)N)C(=O)N[C@@H](CCCCN)C(=O)N2)NC(=O)[C@H](CSSC[C@@H](C(=O)N[C@@H](CCCCN)C(=O)N[C@@H](Cc2ccc(O)cc2)C(=O)N[C@H](C(=O)N[C@@H](CCC(=O)O)C(N)=O)C(C)C)NC(=O)[C@H](Cc2c[nH]c4ccccc24)NC(=O)[C@H](CCCCN)NC(=O)[C@H](Cc2cnc[nH]2)NC(=O)[C@H]([C@@H](C)O)NC(=O)[C@H](CCCNC(=N)N)NC(=O)[C@H](CO)NC3=O)NC(=O)[C@H](CCCCN)NC(=O)[C@H](CC(=O)O)NC(=O)[C@H](CC(N)=O)NC(=O)[C@H](CC(=O)O)NC(=O)[C@@H]2CCCN2C1=O [compound 34] (H-DCLGFMRKCIPDNDKCCRPNLVCSRTHKWCKYVE-NH2; disulfide 2-17, 9-23, 16-30)
hNav1.5; IWQ Use Nav1.5 (μM)
  IC50: 16.8 µM
hNav1.7; use-dependent, […]
  IC50: 17 µM
hNav1.3; use-dependent, […]
  IC50: 11.2 µM
